Experimental data as given in patent US7217555B1, “Cloning and characterisation of novel mammalian peptidase” (Janssen Pharmaceutica N.V., priority 1998, dated 2007).

Tests used:
Format in all cases: biochemical
[1] = target: T1, LNCaP membrane NAALAD-ase (Homo sapiens, UniProt Q04609); test: Scintillation proximity assay (SPA) of [3H]-NAAG hydrolysis, LNCaP cell membrane preparations
T1 construct: 10 μg of protein from LNCaP cell membrane preparations was used per reaction; endogenous in cells; host or cells: LNCaP cell membranes
Method: (§1) FIG. 10: is an illustration of NAALAD-ase activity determinations using SPA beads. (A) 10 μg of protein from LNCaP cell membrane preparations was used per reaction to develop a high throughput assay NAALAD-ase assay. Hydrolysis of 40 nM 3[H]-NAAG in 1 mM ZnCl2, 50 mM Tris-HCL (pH 7.4) was measured at 25° C. for different incubation times in a 100 μl reaction volume. Reactions were terminated by the addition of 100 μl glycine buffer (pH 3.0) and naked YS-SPA beads. (C) Inhibition of NAALAD-ase I (open circles) or LNCaP membrane NAALAD-ase (closed circles) activity by increasing concentrations of quisqualic acid expressed as a % of control (activity in the absence of any inhibitor).
(§2) NAALAD-ase assays were performed at 37° C. or 25° C. for 10 min in the presence of 50 mM Tris-HCl, pH 7.4, containing 1 mM ZnCl2. Each assay was performed in a 100 μl reaction volume containing 40 nM 3[H]-NAAG, 50 mM Tris-HCl (pH 7.4), 1 mM Zn^2+C2 and either 10 μg of recombinant NAALAD-ase I or LNCaP cell membrane preparations. Reactions were terminated by addition of 100 μl glycine buffer (pH 3.0) and 1 mg naked YS-SPA beads. After allowing the beds to settle for 30 min, the assay mixture was counted in a microtiterplate scintillation counter. […]

NAALAD-ase L = target: T2, NAALAD-ase L (Homo sapiens, UniProt Q9UQQ1); test: [3H]-NAAG hydrolysis assay, COS cells transfected with NAALAD-ase L; settings: recombinant preparation from COS cells
T2 construct: To construct a full length NAALAD-ase L clone, two new primer sets were designed; expressed in transfected cells; host or cells: COS cells, transient, pcDNA-3
T2 sequence (Q9UQQ1 1-740 S100X/R686S/T687H/S689L/V690R/V691S/T692H/F693I): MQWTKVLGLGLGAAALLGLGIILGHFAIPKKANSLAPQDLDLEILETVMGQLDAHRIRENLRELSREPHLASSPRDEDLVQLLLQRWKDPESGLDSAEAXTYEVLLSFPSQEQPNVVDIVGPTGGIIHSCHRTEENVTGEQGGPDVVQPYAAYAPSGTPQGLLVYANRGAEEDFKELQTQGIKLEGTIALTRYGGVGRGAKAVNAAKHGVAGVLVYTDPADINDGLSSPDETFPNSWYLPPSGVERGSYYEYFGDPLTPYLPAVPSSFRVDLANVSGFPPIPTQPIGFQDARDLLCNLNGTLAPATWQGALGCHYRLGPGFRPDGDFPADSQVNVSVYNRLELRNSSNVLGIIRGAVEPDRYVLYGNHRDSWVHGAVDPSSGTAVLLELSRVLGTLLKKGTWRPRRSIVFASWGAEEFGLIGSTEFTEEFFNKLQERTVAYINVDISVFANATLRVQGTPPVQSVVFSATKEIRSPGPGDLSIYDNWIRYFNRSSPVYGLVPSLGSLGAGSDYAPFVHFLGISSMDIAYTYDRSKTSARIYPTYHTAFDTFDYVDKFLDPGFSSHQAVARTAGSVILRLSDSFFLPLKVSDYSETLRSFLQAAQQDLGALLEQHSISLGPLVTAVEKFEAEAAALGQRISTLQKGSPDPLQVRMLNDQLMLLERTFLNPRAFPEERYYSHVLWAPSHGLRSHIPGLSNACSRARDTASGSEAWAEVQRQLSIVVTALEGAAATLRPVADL
Method: (§3) FIG. 9: is an illustration of time course of NAALAD-ase activity. Activity of membrane preparations from COS cells transiently transfected with either NAALAD-ase I (A) or […]. Hydrolysis of 500 nM 3[H]-NAAG in 1 mM ZnCl2, 50 mM Tris.HCL (pH 7.4) was assayed for 0, 15, 30 and 60 min at 37° C. in the presence (open circles) or absence (closed circles) of 30 μM quisqualate. Reactions were terminated with 250 mM ice cold sodium phosphate and released 3[H]-glutamate measured. (C) Inhibition of NAALAD-ase I (open circles) and NAALAD-ase II (closed circles) activity by increasing concentrations of quisqualic acid expressed as % of control (activity in the absence of any inhibitor).
COS cells were maintained in complete medium (DMEM supplemented with 10% foetal calf serum, 1× non-essential amino acids and a 1× strptamycin/penicillin/glutamine mix). […] The cell titre was determined in a Coulter counter and cells were seeded in 6 well plates at a density of 15000 cells/cm^2 and allowed to reach approximately 80% confluence (˜2 days growth). […]
(§4) NAALAD-ase activity was quantified by determination of the extent of hydrolysis of N-acetyl-L-aspartyl-L-(3,4-[^3H])-glutamate as previously described (Blakeley et al., 1988). […] Assay eluates were diluated with scintillation cocktail (16 ml Ultima Gold XR) and counted in a scintillation counter (Packard). […]

NAALAD-ase I [2] = target: T3, NAALAD-ase I (Homo sapiens, UniProt Q04609, Y75H); test: Scintillation proximity assay (SPA) of [3H]-NAAG hydrolysis, recombinant NAALAD-ase I membrane preparations; design: expressed in transfected cells
Method: as §1, §2

NAALAD-ase II = target: T4, NAALAD-ase II (Homo sapiens, UniProt Q9Y3Q0); test: [3H]-NAAG hydrolysis assay, membranes of COS cells transiently transfected with NAALAD-ase II
T4 construct: expressed in transfected cells; host or cells: COS cells, transient, pcDNA-3
Method: as §3
(§5) COS cells were maintained in complete medium (DMEM supplemented with 10% foetal calf serum, 1× non-essential amino acids and a 1× strptamycin/penicillin/glutamine mix). Prior to transfection cells were washed twice with PBS, Ca^+2/Mg^2+ free pre-warmed to 37° C. and dissociated from culture plates by addition of a trypsin/EDTA solution for 1–2 minutes. Cells were collected after a 10 min spin at 1600 rpm and re-suspended in 1–2 ml of equilibrated (5% CO2/95% air) pre-warmed medium. The cell titre was determined in a Coulter counter and cells were seeded in 6 well plates at a density of 15000 cells/cm^2 and allowed to reach approximately 80% confluence (˜2 days growth). For each transfection 6 μl FuGENE6 (Boehringer Mannheim, Germany) was added to 96 μl serum free medium and incubated for 5 minutes at 20° C. This preparation was added to a second tube containing 1 μg of NAALAD-ase/pcDNA3 DNA, mixed gently and allowed to stand for 15 minutes at room temperature. The DNA/FuGENE6/serum-free medium mix was pipetted into a well containing 2 ml fresh complete medium. […]
as §4

NAALAD-ase I [3] = target: T3, NAALAD-ase I; test: [3H]-NAAG hydrolysis assay, membranes of COS cells transiently transfected with NAALAD-ase I; design: expressed in transfected cells; host or cells: COS cells, transient, pcDNA-3 (CMV promoter)
Method: as §3, §5, §4

T3 sequence (Q04609 whole entry Y75H): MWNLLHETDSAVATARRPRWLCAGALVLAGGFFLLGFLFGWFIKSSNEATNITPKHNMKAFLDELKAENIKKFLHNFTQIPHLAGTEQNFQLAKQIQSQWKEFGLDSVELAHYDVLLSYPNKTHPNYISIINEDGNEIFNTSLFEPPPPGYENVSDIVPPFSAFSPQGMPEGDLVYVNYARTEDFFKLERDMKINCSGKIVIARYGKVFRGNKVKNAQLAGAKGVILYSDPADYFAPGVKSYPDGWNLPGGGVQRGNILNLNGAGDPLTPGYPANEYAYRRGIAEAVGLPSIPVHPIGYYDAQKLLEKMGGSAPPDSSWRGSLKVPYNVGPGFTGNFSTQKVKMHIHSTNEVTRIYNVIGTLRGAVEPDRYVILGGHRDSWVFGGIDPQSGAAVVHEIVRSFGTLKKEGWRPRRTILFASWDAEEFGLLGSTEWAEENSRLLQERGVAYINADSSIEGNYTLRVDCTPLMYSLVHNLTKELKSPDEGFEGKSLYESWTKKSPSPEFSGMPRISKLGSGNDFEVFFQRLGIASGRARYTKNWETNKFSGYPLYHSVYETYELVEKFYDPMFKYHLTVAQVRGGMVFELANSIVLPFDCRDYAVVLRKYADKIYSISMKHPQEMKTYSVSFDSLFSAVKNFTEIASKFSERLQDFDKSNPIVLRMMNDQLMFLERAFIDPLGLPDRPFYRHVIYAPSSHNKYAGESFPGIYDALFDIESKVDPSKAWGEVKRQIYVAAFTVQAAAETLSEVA
T4 sequence (Q9Y3Q0 whole entry): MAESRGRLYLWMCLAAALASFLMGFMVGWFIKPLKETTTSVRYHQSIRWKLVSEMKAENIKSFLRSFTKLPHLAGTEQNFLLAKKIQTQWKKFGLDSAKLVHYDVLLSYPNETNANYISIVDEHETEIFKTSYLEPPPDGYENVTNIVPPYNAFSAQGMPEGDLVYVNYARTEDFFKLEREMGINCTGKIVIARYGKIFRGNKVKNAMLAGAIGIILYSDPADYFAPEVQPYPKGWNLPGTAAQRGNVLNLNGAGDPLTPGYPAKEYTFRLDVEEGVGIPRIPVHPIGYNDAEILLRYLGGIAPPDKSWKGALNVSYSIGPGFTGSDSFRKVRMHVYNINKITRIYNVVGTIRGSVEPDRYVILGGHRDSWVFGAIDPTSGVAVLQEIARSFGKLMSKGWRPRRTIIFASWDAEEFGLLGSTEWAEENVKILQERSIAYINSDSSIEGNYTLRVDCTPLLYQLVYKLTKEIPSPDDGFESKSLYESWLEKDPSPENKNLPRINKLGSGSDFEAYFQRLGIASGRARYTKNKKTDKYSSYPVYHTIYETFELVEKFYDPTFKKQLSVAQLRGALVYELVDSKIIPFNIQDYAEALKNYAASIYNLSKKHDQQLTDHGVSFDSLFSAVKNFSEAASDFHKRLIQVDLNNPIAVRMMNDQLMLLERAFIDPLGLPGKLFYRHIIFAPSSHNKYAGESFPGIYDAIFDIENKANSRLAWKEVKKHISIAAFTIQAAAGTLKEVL
T1 sequence (Q04609 whole entry): as the sequence (Q04609 whole entry Y75H) above, with H75Y counted along it

With `N[C@@H](Cn1oc(=O)[nH]c1=O)C(=O)O` [quisqualic acid] the IC50 [1] was 0.91 µM, the “inhibition of NAALAD-ase L activity against NAAG” value (NAALAD-ase L) was “inhibited” and the IC50 (NAALAD-ase I [2]) was 1 µM. For the same molecule, the inhibition at 30 µM (NAALAD-ase II; 30 μM, after 60 min (FIG. 9B)) was over 50%, the IC50 (NAALAD-ase II; IC50, inhibition of NAALAD-ase II activity, 500 nM [3H]-NAAG, 37° C., 60 min, anion exchange column readout (FIG. 9C)) was 17 µM and the IC50 (NAALAD-ase II; IC50 for NAALAD-ase II (discussion, rounded), recombinant preparation from COS cells, NAAG hydrolysis) was about 10 µM. For the same molecule, the inhibition at 30 µM (NAALAD-ase I [3]; 30 μM, after 60 min (FIG. 9A)) was over 50%, the IC50 (NAALAD-ase I [3]; IC50, inhibition of NAALAD-ase I activity, 500 nM [3H]-NAAG, 37° C., 30 min, anion exchange column readout (FIG. 9C)) was 12 µM and the IC50 (NAALAD-ase I [3]; IC50 for NAALAD-ase I (discussion, rounded), recombinant preparation from COS cells, NAAG hydrolysis) was about 10 µM.
